{"source": "patent US5098900A", "about": "“3(2H)pyridazinone, process for its preparation and anti-allergic agent containing it” (Nissan Chemical Industries Ltd., priority 1984, dated 1992)", "key": {"ddY strain male mice": {"tested_on": "ddY strain male mice", "assay": "Acute toxicity test, method-(1), oral administration", "type": "in vivo", "conditions": "300 mg/kg, P.O., 7 days after administration", "method": "The lethal ratio was determined in ddY strain male mice (4 weeks old) at 7 days after the oral administration of test compounds."}, "SRS-A": {"tested_on": "SRS-A", "assay": "SRS-A antagonism in guinea-pig ileum (SRS-A-induced contraction)", "type": "cell-based", "conditions": "1 min, test compound 5×10^-7 g/ml, isolated guinea-pig ileum; for inhibition at 0.5 µg/mL: Cavia porcellus", "method": "(i) SRS-A antagonism in quinea-pig ileum\nSRS-A antagonism was determined against the contraction induced by SRS-A in isolated guinea-pig ileum. The SRS-A was prepared in accordance with the method of Brocklehurst (J. Physiol., 151, 416, 1960) and Kohno and Parker (J. Immunol., 125, 446, 1980). Adult male guinea-pigs (200-250 g) were sensitized with chick egg albumin (EA), 100 mg subcutaneously and 100 mg intraperitoneally. Three weeks later the animals were killed by a blow on the head and lungs were perfused free of blood with Tyrode solution passed through the right ventricle. Isolated lungs were chopped into pieces (1 mm^3) by a scissors in Tyrode solution and filtrated with gauze, and then 1.0-1.3 g of chopped lung fragments were distributed into individual tubes (9.7 ml of Tyrode solution/tube). EA solution (0.3 ml) at a 3×10^-4 g/ml final concentration was added to the tubes and incubated for 20 min at 37° C., and then the supernatant was used for the SRS-A antagonism.\nAssay for SRS-A antagonism was performed as follows: Ileum preparations isolated from male guinea-pig (300-400 g) were suspended under 0.5 g tension in organ baths (5 ml) containing Tyrode solution maintained at 30° C. and gassed with 95% O2 +5% CO2. After the repeated responses to histamine (10^-7 g/ml) was established, the contractile response to SRS-A (0.5 ml) was carried out in the presence of 10^-6 M atropine and 10^-6 M pyrilamine. Test compounds dissolved in 100% dimethyl sulfoxide were added to the organ baths (final concentration of 5×10^-7 g/ml) 1 min prior to the SRS-A addition, and SRS-A-induced contractions were compared with those of control (SRS-A-induced contraction before the treatment). The SRS-A antagonism (%) =[1.0 - (SRS-A-induced contraction in test compound)/control]×100"}, "LTC4": {"tested_on": "LTC4", "assay": "LTC4 antagonism in isolated guinea-pig trachea (LTC4-induced contraction)", "type": "cell-based", "conditions": "Cavia porcellus, 5 min, read-out: LTC4 antagonism", "method": "(ii) LTC4 and LTD4 antagonisms in guinea-pig trachea\nAntagonism for LTC4 and LTD4 were determined in isolated guinea-pig trachea prepared as spiral strip. 10 Tracheal preparations were suspended under 1 g tension in […] and they were incubated for 1 hr prior to use. Contractile responses to LTC4 (2×10^-8 g/ml) and LTD4 (2×10^-8 g/ml) were obtained after the maximal response to histamine (10^-4 M). Test compounds dissolved in 100% dimethyl sulfoxide were added to the organ baths (final concentration of 10^-5 g/ml) 5 min prior to LTC4 and LTD4 addition, and then contractile responses to LTC4 and LTD4 were compared with those of control which was obtained from a paired trachea in the absence of test compounds. LTC4 - and LTD4 -induced contractions were expressed as a percentage of the maximal response to histamine. The antagonism was determined as follows: Antagonism (%)=(1.0-% contraction in test/% contraction in control)×100"}, "LTD4 [1]": {"tested_on": "LTD4", "assay": "Effect on bronchoconstriction induced by intravenous administration of LTD4", "type": "in vivo, guinea-pig", "conditions": "2 mg/kg, i.v., in Tween 80; LTD4 2 μg/kg i.v.", "method": "(iv) Effect on bronchoconstriction induced by intravenous (i.v.) administration of LTD4\nBronchoconstrictions induced by i.v. administration of LTD4 in guinea-pigs (350-450 g) were measured as described in anaphylactic bronchoconstriction. Guinea-pigs were anaesthetized with urethane (1.5 g/kg) and the trachea was cannulated to record total pulmonary resistance. The right jugular vein was cannulated for the administration of the all agents. The guinea-pigs were artificially ventilated by a small respirator set at a stroke volume of 5 ml and a rate of 50 breaths per min. LTD4 (2 μg/kg)-induced bronchoconstriction was shown by the increase in air overflow volume. After the response to histamine (5 μg/kg) was checked, the first response to LTD4 was obtain-d as control. […] Inhibition (%) of the bronchoconstriction was determined as follows: Inhibition (%) =(1.0 -peak value in the second response/peak value in the first response)×100."}, "[2]": {"tested_on": "antigen-induced anaphylactic bronchoconstriction", "assay": "Effect on anaphylactic bronchoconstriction in passively sensitized guinea-pig", "type": "in vivo", "conditions": "2 mg/kg, i.v.", "method": "(iii) Effect on anaphylactic bronchoconstriction in passively sensitized guinea-pig\nMale guinea-pigs (350-450 g) were passively sensitized with intravenous (i.v.) injection of 0.125 ml rabbit anti-EA serum (Cappel Laboratories) 1 day preceding the experiment. […] The right jugular vein was cannulated for the administration of the all agents and trachea was cannulated to record total pulmonary resistance. Guinea-pigs were artificially ventilated by a small animal respirator (Shinano, Model SN-480-7) set at a stroke volume of 4-5 ml and a rate of 50 breaths per min. […] The increase in air overflow volume was expressed as a percentage of the maximum bronchoconstriction obtained by clamping off the trachea. Following surgical preparation, the animals were pretreated with indomethacin (1.0 mg/kg, 10 min), pyrilamine (2 mg/kg, 6 min) and propranolol (0.1 mg/kg, 5 min) prior to the EA challenge (0.1 or 10 mg/kg). All test compounds, 2 mg/kg in 3% Tween 80 or 3% PEG-400, were administered 1 min before the EA challenge. Inhibition (%) of bronchoconstriction was determined as follows Inhibition (%)=(1.0% -maximum bronchoconstriction in test/% maximum bronchoconstriction in control) ×100.\nIn the Table, the dose of EA was 10 mg/kg, and each compound was dissolved or suspended in 3% Tween 80.\nIn the Table, the dose of EA was 0.1 mg/kg.\n*: PEG represents polyethylene glycol400."}, "LTD4 [3]": {"tested_on": "LTD4", "assay": "LTD4 antagonism in isolated guinea-pig trachea (LTD4-induced contraction)", "type": "cell-based", "conditions": "Cavia porcellus, 5 min, test compound 10^-5 g/ml, LTD4 2×10^-8 g/ml", "how_it_was_run": "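Spiral strips of isolated guinea-pig trachea were held at 1 g tension in organ baths and incubated for 1 hr. After a maximal histamine (10^-4 M) response, test compounds in 100% dimethyl sulfoxide were added 5 min before LTD4 (2×10^-8 g/ml). Contraction, as percent of histamine maximum, was compared with a paired untreated control trachea to give antagonism (%).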"}, "[4]": {"conditions": "test compound 10^-5 g/ml, LTC4 2×10^-8 g/ml, guinea-pig trachea"}}, "note": "Read-outs that look alike come from different tables or passages of the source."}
{"compound": "CCc1ccc(CNc2cnn(C(C)(C)C)c(=O)c2Cl)cc1", "note": "[Compound No. 4]", "values": [{"measurement": "Lethal ratio", "setting": "ddY strain male mice", "result": "0/3"}, {"measurement": "inhibition at 0.5 µg/mL", "setting": "SRS-A", "result": 73, "unit": "%"}, {"measurement": "inhibition at 10 µg/mL", "setting": "LTC4; [4]", "result": 55, "unit": "%"}]}
{"compound": "CCCc1c(OCC(O)COc2ccc3c(=O)cc(C(=O)O)oc3c2CCC)ccc(C(C)=O)c1O", "note": "(stereo not shown) [FPL-55712, reference compound]", "values": [{"measurement": "Inhibition of LTD4-induced bronchoconstriction", "setting": "LTD4 [1]", "result": 100, "unit": "%"}, {"measurement": "inhibition at 0.5 µg/mL", "setting": "SRS-A", "result": 88, "unit": "%"}, {"measurement": "Inhibition of anaphylactic bronchoconstriction", "setting": "[2]; EA 0.1 mg/kg, Tween 80", "result": 60, "unit": "%"}, {"measurement": "Inhibition of anaphylactic bronchoconstriction", "setting": "[2]; EA 10 mg/kg, 3% Tween 80", "result": 27, "unit": "%"}, {"measurement": "inhibition at 10 µg/mL", "setting": "LTC4", "result": 100, "unit": "%"}, {"measurement": "inhibition at 10 µg/mL", "setting": "LTD4 [3]", "result": 88, "unit": "%"}]}
{"compound": "CN(C)c1ccc(CNc2cnn(C(C)(C)C)c(=O)c2Cl)cc1.Cl", "note": "[Compound No. 44, 4-Chloro-5-(4-dimethylaminobenzylamino)-2-t-butyl-3-(2H)pyridazinone hydrochloride]", "values": [{"measurement": "Inhibition of LTD4-induced bronchoconstriction", "setting": "LTD4 [1]", "result": 72.5, "unit": "%"}, {"measurement": "SRS-A antagonism", "setting": "SRS-A", "result": 55, "unit": "%"}, {"measurement": "Inhibition of anaphylactic bronchoconstriction", "setting": "[2]; EA 10 mg/kg, 3% Tween 80", "result": 72, "unit": "%"}]}
{"compound": "CCOc1ccc(CNc2cnn(C(C)(C)C)c(=O)c2Cl)cc1", "note": "[Compound No. 10]", "values": [{"measurement": "Lethal ratio", "setting": "ddY strain male mice", "result": "0/3"}, {"measurement": "inhibition at 0.5 µg/mL", "setting": "SRS-A", "result": 40, "unit": "%"}, {"measurement": "Inhibition of anaphylactic bronchoconstriction", "setting": "[2]; EA 10 mg/kg, 3% Tween 80", "result": 31, "unit": "%"}, {"measurement": "inhibition at 10 µg/mL", "setting": "LTC4; [4]", "result": 50, "unit": "%"}]}
